Measurements reported in patent US7410975B2, “Small molecule toll-like receptor (TLR) antagonists” (Coley Pharmaceutical Group, Inc., priority 2003, dated 2008).

target: T1, human TLR3 (hTLR3) (Homo sapiens, UniProt O15455); test: Antagonist screen, hTLR3-NFκB-293 cells, NF-κB-luciferase reporter, with EC50 of poly(I:C); type: cell-based; conditions: compound at 0.5, 5, 50 μg/ml; EC50 concentration of poly(I:C); 16 h; NF-κB-luciferase
T1 construct: expressed in transfected cells
T1 sequence (O15455 24-904): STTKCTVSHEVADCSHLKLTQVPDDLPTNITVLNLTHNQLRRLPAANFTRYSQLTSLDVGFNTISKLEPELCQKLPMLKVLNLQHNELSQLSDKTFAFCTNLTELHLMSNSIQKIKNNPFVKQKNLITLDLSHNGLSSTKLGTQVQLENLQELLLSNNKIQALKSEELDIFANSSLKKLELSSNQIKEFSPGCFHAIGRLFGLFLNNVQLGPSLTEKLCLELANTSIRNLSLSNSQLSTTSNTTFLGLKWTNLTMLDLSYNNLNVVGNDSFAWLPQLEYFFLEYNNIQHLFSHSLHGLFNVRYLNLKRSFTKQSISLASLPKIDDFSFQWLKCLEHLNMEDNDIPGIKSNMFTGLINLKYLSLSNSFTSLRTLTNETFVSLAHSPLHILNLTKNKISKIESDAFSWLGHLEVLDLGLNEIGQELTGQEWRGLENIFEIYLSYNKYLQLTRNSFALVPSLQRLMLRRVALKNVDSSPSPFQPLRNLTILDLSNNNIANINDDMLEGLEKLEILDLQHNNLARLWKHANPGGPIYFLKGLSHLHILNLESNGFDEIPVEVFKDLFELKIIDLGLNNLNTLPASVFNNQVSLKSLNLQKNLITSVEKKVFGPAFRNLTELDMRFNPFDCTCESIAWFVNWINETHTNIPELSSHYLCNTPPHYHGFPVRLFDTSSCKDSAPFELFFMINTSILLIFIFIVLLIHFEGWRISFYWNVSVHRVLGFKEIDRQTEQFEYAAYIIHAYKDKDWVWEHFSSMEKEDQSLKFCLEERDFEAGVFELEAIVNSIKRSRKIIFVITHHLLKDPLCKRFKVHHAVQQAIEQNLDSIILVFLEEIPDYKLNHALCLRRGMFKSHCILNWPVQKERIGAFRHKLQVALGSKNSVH
Procedure: The method is described in greater detail as follows. The cells for each individual cell clone (hTLR3-NFκB-293, hTLR7-NFκB-293, hTLR8-NFκB-293 and hTLR9-NFκB-293) were counted and seeded one day before the stimulation at 1.5×10^4 cells per well in 96-well cell culture plates. To become adherent the cells were incubated after seeding overnight at 37° C. in 5% CO2 humidified air.
The screen for each compound was performed at the same time for all of the receptors TLR3, TLR7, TLR8 and TLR9. Up to fifteen test compounds, each assayed in duplicate at each of three different final concentrations (0.5 μg/ml, 5 μg/ml, and 50 μg/ml), were used for 16 h cell stimulation on a single multiwell culture plate. A 4× final concentration master plate was created to prepare the different test compounds before they were added to the cells.
Controls were added as duplicates individually for each cell clone on the cell culture plate. Positive controls were used as follows (final concentrations): 50 μg/ml poly(I:C) for hTLR3-NFκB-293; 8 μM resiquimod (R848) for hTLR7-NFκB-293; 30 μM R848 for hTLR8-NFκB-293; and 2.5 μM CpG-ODN 2006 for hTLR9-NFκB-293. Media alone was used as negative control. After addition of controls and small molecules, the cell clones were additionally stimulated with the EC50 concentration of the appropriate receptor-specific ligand.
The mean value of wells H2 and H5 (each with cells and EC50 concentration of the appropriate receptor-specific ligand) divided by the mean of wells H3 and H6 (each with cells alone) yielded the baseline response (i.e., fold induction of luciferase activity) to EC50 concentration of the appropriate receptor-specific ligand.
After 16 h stimulation the supernatant was removed and the cells treated with lysis buffer and stored at −80° C. before measuring.
For each screen result a graphical documentation was performed.
The baseline result (measured with addition of the EC50 concentration of the receptor-specific ligand) for each cell culture plate was measured as described above. Antagonistic effects were measured by down regulation compared to the baseline. Antagonists were scored as follows: • 13: compounds for which there was clear down regulation at 0.5 μg/ml, 5 μg/ml, and 50 μg/ml; • 12: compounds for which there was clear down regulation at 5 μg/ml and 50 μg/ml; • 11: compounds for which there was clear down regulation only at 50 μg/ml; • —: compounds for which there was no clear down regulation even at 50 μg/ml. Agonists
Results were expressed as fold induction over baseline luciferase activity measured in the absence of poly(I:C). […] Additional screening was performed in like manner using additional small molecules selected from another library or specifically prepared for this purpose. Scoring is reported as above but as applied to TLR3.

Molecule | hTLR3 (inhibitory effect, antagonist score)
CC(CN(C)C)CN1c2ccccc2Sc2ccccc21.CC(CN(C)C)CN1c2ccccc2Sc2ccccc21.O=C(O)C(O)C(O)C(=O)O (centres unmarked) [compound 842, Trimeprazine tartrate] | — (compounds for which there was no clear down regulation even at 50 μg/ml)
O=C1c2ccccc2C(=O)c2c1ccc1c(=O)n(C3CCCCC3)[nH]c21 [compound 1015] | — (compounds for which there was no clear down regulation even at 50 μg/ml)
CS(=O)(=O)O.OC(CCN1CCCCC1)(c1ccccc1)c1ccccc1 [compound 799, Pridinolmethanesulfonate salt] | — (compounds for which there was no clear down regulation even at 50 μg/ml)
CCN(CC)C(C)CN1c2ccccc2Sc2ccccc21.Cl (centres unmarked) [compound 840, Ethopropazinehydrochloride] | — (compounds for which there was no clear down regulation even at 50 μg/ml)
CC[C@]12CCCN3CCc4c(n(c5ccccc45)[C@](O)(C(=O)OC)C1)[C@@H]32 [compound 636, Epivincamine] | 11 (compounds for which there was clear down regulation only at 50 μg/ml)
CCOC(=O)Oc1c(OC)cc(C(=O)O[C@@H]2C[C@@H]3CN4CCc5c([nH]c6cc(OC)ccc56)[C@H]4C[C@@H]3[C@H](C(=O)OC)[C@H]2OC)cc1OC [compound 564, Syrosingopine] | 13 (compounds for which there was clear down regulation at 0.5 μg/ml, 5 μg/ml, and 50 μg/ml)
CN(C)CCCN1c2ccccc2Sc2ccccc21.Cl [compound 693, Promazinehydrochloride] | — (compounds for which there was no clear down regulation even at 50 μg/ml)
Cc1c2ccncc2c(C)c2c1[nH]c1ccccc12 [compound 614, Ellipticine] | 12 (compounds for which there was clear down regulation at 5 μg/ml and 50 μg/ml)
C[N+]12CCC(CC1)C(OC(=O)C(O)(c1ccccc1)c1ccccc1)C2.[Br-] (centres unmarked) [compound 822, Clidinium bromide] | — (compounds for which there was no clear down regulation even at 50 μg/ml)
CN(C)CC/C=C1/c2ccccc2CSc2ccccc21.Cl [compound 488, Dosulepin hydrochloride] | 11 (compounds for which there was clear down regulation only at 50 μg/ml)
CN1CCCCC1CCN1c2ccccc2Sc2ccc([S+](C)[O-])cc21.O=S(=O)(O)c1ccccc1 (centres unmarked) [compound 529, Mesoridazine besylate] | — (compounds for which there was no clear down regulation even at 50 μg/ml)
O=C(O)c1ccccc1NC1CC=CC2=C1C(=O)c1ccccc1C2=O (centres unmarked) [compound 917] | 12 (compounds for which there was clear down regulation at 5 μg/ml and 50 μg/ml)
Cl.Cl.c1ccc2c3c([nH]c2c1)C1C2CCC(C4CCCNC42)N1CC3 (centres unmarked) [compound 685, Nitrarine dihydorchloride] | — (compounds for which there was no clear down regulation even at 50 μg/ml)
CC1NCCc2c1[nH]c1ccccc21.Cl (racemic) [compound 619, Eleagnine hydrochloride (R,S)] | — (compounds for which there was no clear down regulation even at 50 μg/ml)
COC(=O)C1=CO[C@@H](C)[C@@H]2CN3CCc4c([nH]c5ccccc45)[C@@H]3C[C@H]12 [compound 593, Tetrahydroalstonine] | — (compounds for which there was no clear down regulation even at 50 μg/ml)
COCCCNC(=O)c1ccc2c(c1N)C(=O)c1ccccc1C2=O [compound 1337] | 11 (compounds for which there was clear down regulation only at 50 μg/ml)

Molecule | hTLR3 (inhibitory effect, antagonist score)
C[C@]12N[C@H](Cc3ccccc31)c1ccccc12.O=C(O)/C=C\C(=O)O [compound 109, Dizocilpine maleate] | — (compounds for which there was no clear down regulation even at 50 μg/ml)
NC(=O)c1cccc2c1-c1ccccc1C2 [compound 1132] | 11 (compounds for which there was clear down regulation only at 50 μg/ml)
CN(C)CCCN1c2ccccc2Sc2ccc(C(F)(F)F)cc21.Cl [compound 53, Triflupromazinehydrochloride] | 11 (compounds for which there was clear down regulation only at 50 μg/ml)
NC(=O)c1cc(N)c2c(c1N)C(=O)c1ccccc1C2=O [compound 1158] | — (compounds for which there was no clear down regulation even at 50 μg/ml)
CNCCCN1c2ccccc2CCc2ccccc21.Cl [compound 343, Desipraminehydrochloride] | 11 (compounds for which there was clear down regulation only at 50 μg/ml)
CC1CCN(C(=O)c2cccc3c2-c2ccccc2C3=O)CC1 [compound 1243] | — (compounds for which there was no clear down regulation even at 50 μg/ml)
Metixene hydrochloride [compound 491] | 12 (compounds for which there was clear down regulation at 5 μg/ml and 50 μg/ml)
COc1ccc2c(c1)[nH]c1c(C)nccc12.Cl [compound 613, harmine hydrochloride] | 12 (compounds for which there was clear down regulation at 5 μg/ml and 50 μg/ml)
COC(=O)[C@H]1[C@H]2C[C@@H]3c4[nH]c5cc(OC)ccc5c4CCN3C[C@H]2C[C@@H](OC(=O)/C=C/c2cc(OC)c(OC)c(OC)c2)[C@@H]1OC [compound 568, Rescinnamin] | — (compounds for which there was no clear down regulation even at 50 μg/ml)
O=C(c1cccc2c1-c1ccccc1/C2=N\O)N1CCCCC1 [compound 1050] | 12 (compounds for which there was clear down regulation at 5 μg/ml and 50 μg/ml)
CC[C@]12CCCN3CCc4c(n(c5ccccc45)C(=O)C1)[C@@H]32 [compound 607, Eburnamonine] | — (compounds for which there was no clear down regulation even at 50 μg/ml)
COC(=O)c1ccc(C2CC(=O)Nc3c2ccc2ccccc32)cc1 (centres unmarked) [compound 965] | 12 (compounds for which there was clear down regulation at 5 μg/ml and 50 μg/ml)
C=CCc1ccccc1OC1(c2ccccc2)OC(=O)c2ccccc21 (centres unmarked) [compound 957] | 12 (compounds for which there was clear down regulation at 5 μg/ml and 50 μg/ml)
Clc1ccc(C(c2ccccc2Cl)C(Cl)Cl)cc1 (centres unmarked) [compound 833, Mitotane] | 11 (compounds for which there was clear down regulation only at 50 μg/ml)
CCOC(=O)c1cc([N+](=O)[O-])cc2c1-c1ccc([N+](=O)[O-])cc1C2=C(C#N)C#N [compound 1039] | — (compounds for which there was no clear down regulation even at 50 μg/ml)
CN1CCN(CCCN2c3ccccc3Sc3ccc(S(=O)(=O)N(C)C)cc32)CC1.CS(=O)(=O)O.CS(=O)(=O)O [compound 149, Thioproperasinedimesylate] | — (compounds for which there was no clear down regulation even at 50 μg/ml)
